# Results from patent publication US20040087629A1, “Tartrate salts of thiazolidinedione derivative” (priority 2003, published 2004).
# Like-named read-outs stand apart in the source and are kept apart here.
# Conditions: 1 month, product of Example 4
smiles,measurement,setting,value
"CN(CCOc1ccc(CC2SC(=O)NC2=O)cc1)c1ccccn1.O=C(O)C(O)C(O)C(=O)O [L(+) Tartrate, 5-[4-[2-(N-methyl-N-(2-pyridyl)amino)ethoxy]benzyl]thiazolidine-2,4-dione L-(+)-tartrate]",HPLC assay (final content),"40° C./75% Relative Humidity (RH), open exposure",97 % initial
same,HPLC assay (final content),"50° C., closed",98 % initial
